Patent US8735406B2, “8-oxodihydropurine derivative” (Dainippon Sumitomo Pharma Co., Ltd., priority 2009, dated 2014)
Like-named read-outs stand apart in the source and are kept apart here.

Molecular target: T1, FAAH (Rattus norvegicus, UniProt P97612)
T1 construct: Preparation of Rat Brain Membranes Preparations (FAAH Enzyme Solution); from tissue; host or cells: rat cerebrum (brain membrane preparation)
T1 sequence (P97612 1-579): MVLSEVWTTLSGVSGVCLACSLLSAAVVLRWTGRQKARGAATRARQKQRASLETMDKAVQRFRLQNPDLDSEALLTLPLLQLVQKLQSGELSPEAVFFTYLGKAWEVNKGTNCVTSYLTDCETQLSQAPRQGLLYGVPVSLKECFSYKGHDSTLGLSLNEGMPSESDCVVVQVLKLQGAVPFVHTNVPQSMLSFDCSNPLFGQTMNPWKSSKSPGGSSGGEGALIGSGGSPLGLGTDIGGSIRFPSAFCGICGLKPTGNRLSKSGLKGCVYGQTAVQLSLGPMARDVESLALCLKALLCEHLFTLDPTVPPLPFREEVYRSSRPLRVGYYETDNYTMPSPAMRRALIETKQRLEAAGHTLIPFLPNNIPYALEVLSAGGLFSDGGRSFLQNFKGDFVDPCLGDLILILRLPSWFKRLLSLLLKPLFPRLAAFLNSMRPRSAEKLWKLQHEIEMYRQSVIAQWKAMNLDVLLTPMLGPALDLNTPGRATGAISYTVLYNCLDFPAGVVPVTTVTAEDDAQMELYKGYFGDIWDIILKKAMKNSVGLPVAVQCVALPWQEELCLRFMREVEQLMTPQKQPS
Test: Determination of FAAH inhibitory activity in rat (rat brain membrane preparations, [3H]-anandamide hydrolysis)
Assay type: biochemical
Procedure, shortened: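 Compounds tested from 0.1 nM to 1 μM to derive IC50 against FAAH hydrolysis in rat brain membrane preparations (100 μg/mL). A 10-min 37 °C preincubation was followed by 10 min with [3H]-anandamide (2 nM) mixed with 2 μM unlabelled anandamide. Radioactive ethanolamine was extracted into the water/methanol layer and counted.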

[1] = at 100 nM, rat brain membrane preparations, read-out: FAAH Inhibition Inhibition Rate at 100 nM
[2] = rat brain membrane preparations, read-out: FAAH Inhibition IC50
[3] = rat brain membrane preparations, 100 nM test substance, read-out: FAAH Inhibition, Inhibition Rate at 100 nM
[4] = rat brain membrane preparations, test substance 0.1 nM to 1 μM, read-out: FAAH Inhibition IC50
[5] = read-out: FAAH Inhibition, Inhibition Rate at 100 nM

| SMILES | inhibition at 0.1 µM [3] [%] | IC50 [4] [nM] | other results |
| --- | --- | --- | --- |
| Cn1c(=O)n(C(=O)N2CC(c3cccc(F)c3)C2)c2cnc(C3CC3)nc21 [compound 622] | – | – | inhibition at 0.1 µM [1]: 116%; IC50 [2]: 1 nM |
| Cn1c(=O)n(C(=O)N2CCCC2)c2cnc(-c3ccccc3F)nc21 [Example 166, 2-(2-fluorophenyl)-9-methyl-7-(pyrrolidin-1-ylcarbonyl)-7,9-dihydro-8H-purine-8-one] | 99 | 24 | – |
| Cn1c(=O)n(C(=O)N2CCN(c3nccs3)CC2)c2cnc(-c3ccccc3)nc21 [Example 55, 9-Methyl-2-phenyl-7-{[4-(1,3-thiazol-2-yl)piperazin-1-yl]carbonyl}-7,9-dihydro-8H-purine-8-one] | 94 | 25 | – |
| CN(CCCc1ccccc1)C(=O)n1c(=O)n(C)c2nc(-c3ccccc3)ncc21 [Example 35, N,9-Dimethyl-8-oxo-2-phenyl-N-(3-phenylpropyl)-8,9-dihydro-7H-purine-7-carboxamide] | – | 8 | inhibition at 0.1 µM [5]: 100% |
| COCc1ncc2c(n1)n(C)c(=O)n2C(=O)N1CC(c2ccccc2)C1 [Example 438, 2-(methoxymethyl)-9-methyl-7-[(3-phenylazetidin-1-yl)carbonyl]-7,9-dihydro-8H-purine-8-one] | 86 | 34 | – |
| Cn1c(=O)n(C(=O)N2CCC2)c2cnc(Cc3cccc(C(F)(F)F)c3)nc21 [Example 379, 7-(Azetidin-1-ylcarbonyl)-9-methyl-2-[3-(trifluoromethyl)benzyl]-7,9-dihydro-8H-purine-8-one] | 96 | 13 | – |
| Cn1c(=O)n(C(=O)N2CCCC2)c2cnc(/C=C/c3cccc(C(F)(F)F)c3)nc21 [compound 10] | 23 | > 100 | – |
| CCCc1ncc2c(n1)n(C(=O)N1CC(c3cccc(F)c3)C1)c(=O)n2C [Example 633] | – | – | inhibition at 0.1 µM [1]: 82%; IC50 [2]: 19 nM |
| Cn1c(=O)n(C(=O)N2CCC2)c2cnc(COc3cccc(F)c3)nc21 [compound 405] | – | – | IC50 (FAAH Inhibition IC50, rat brain membrane preparations, test substance 0.1 nM to 1 μM): 98 nM; inhibition at 0.1 µM [5]: 97% |
| COc1cc(Cc2ncc3c(n2)n(C)c(=O)n3C(=O)N2CCCC2)cc(OC)c1 [compound 271] | 39 | > 100 | – |
| COc1cccc(-c2ncc3c(n2)n(C)c(=O)n3C(=O)N(C)CCN2CCOCC2)c1 [Example 111] | 46 | 60 | – |
| COCc1ncc2c(n1)n(C)c(=O)n2C(=O)N1CC(c2cccc(OC)c2)C1 [Example 459, 2-(Methoxymethyl)-7-{[3-(3-methoxyphenyl)azetidin-1-yl]carbonyl}-9-methyl-7,9-dihydro-8H-purine-8-one] | 108 | 9 | – |
| CN(C)C(=O)n1c(=O)n(C)c2cnc(CCCC3CCCCC3)nc21 [Example 616] | – | – | inhibition at 0.1 µM [1]: 99%; IC50 [2]: 10 nM |
| COCc1ncc2c(n1)n(C)c(=O)n2C(=O)N1CC(c2ccccc2OC)C1 [compound 457] | 96 | 10 | – |
| COc1ccc(CCc2ncc3c(n2)n(C)c(=O)n3C(=O)N2CCCC2)cc1 [Example 12, 2-[2-(4-Methoxyphenyl)ethyl]-9-methyl-7-(pyrrolidin-1-ylcarbonyl)-7,9-dihydro-8H-purine-8-one] | 93 | 46 | – |
| CCCCOc1cccc(-c2ncc3c(n2)n(C(=O)N2CCC2)c(=O)n3C)c1 [compound 348] | 90 | 28 | – |
| COc1cccc(-c2ncc3c(n2)n(C)c(=O)n3C(=O)N2CCN(CC(F)(F)F)CC2)c1 [Example 99, 2-(3-Methoxyphenyl)-9-methyl-7-{[4-(2,2,2-trifluoroethyl)piperazin-1-yl]carbonyl}-7,9-dihydro-8H-purine-8-one] | 100 | 7 | – |
| COc1cccc(-c2ncc3c(n2)n(C)c(=O)n3C(=O)N2CCN(Cc3ccc(Cl)cc3)CC2)c1 [Example 86, 7-{[4-(4-Chlorobenzyl)piperazin-1-yl]carbonyl}-2-(3-methoxyphenyl)-9-methyl-7,9-dihydro-8H-purine-8-one] | – | 22 | inhibition at 0.1 µM [5]: 96% |
| CN(CCOc1ccc(Cl)cc1)C(=O)n1c(=O)n(C)c2nc(-c3ccncc3)ncc21 [Example 151, N-[2-(4-Chlorophenoxy)ethyl]-N,9-dimethyl-8-oxo-2-(pyridin-4-yl)-8,9-dihydro-7H-purine-7-carboxamide] | 102 | 0.5 | – |
| COc1cccc(-c2ncc3c(n2)n(C)c(=O)n3C(=O)N(C)CCC2=CCCCC2)c1 [Example 106, N-[2-(Cyclohex-1-en-1-yl)ethyl]-2-(3-methoxyphenyl)-N,9-dimethyl-8-oxo-8,9-dihydro-7H-purine-7-carboxamide] | 110 | 1 | – |
| COCc1ncc2c(n1)n(C)c(=O)n2C(=O)N1CC[C@H](Oc2ccccc2Cl)C1 [Example 491, 7-{[(3S)-3-(2-Chlorophenoxy)pyrrolidin-1-yl]carbonyl}-2-(methoxymethyl)-9-methyl-7,9-dihydro-8H-purine-8-one] | 100 | 2 | – |
| O=C(N1CCCC1)n1c(=O)n(CCN2CCCC2)c2nc(-c3ccccc3)ncc21 [Example 310] | 5 | > 100 | – |
| Cn1c(=O)n(C(=O)N2CCN(c3ccccc3F)CC2)c2cnc(-c3ccccc3)nc21 [Example 125, 7-{[4-(2-Fluorophenyl)piperazin-1-yl]carbonyl}-9-methyl-2-phenyl-7,9-dihydro-8H-purine-8-one] | 96 | 30 | – |
| COc1ccc(CCN(C)C(=O)n2c(=O)n(C)c3nc(-c4cccc(OC)c4)ncc32)cc1 [Example 93, 2-(3-Methoxyphenyl)-N-[2-(4-methoxyphenyl)ethyl]-N,9-dimethyl-8-oxo-8,9-dihydro-7H-purine-7-carboxamide] | – | 5 | inhibition at 0.1 µM [5]: 100% |
| Cn1c(=O)n(C(=O)N2CCCC2)c2cnc(-c3ccc(OC(F)(F)F)cc3)nc21 [compound 177] | 78 | 58 | – |

Further lines, with some results ahead:

| inhibition at 0.1 µM [3] [%] | IC50 [4] [nM] | SMILES | other results |
| --- | --- | --- | --- |
| 99 | 10 | CCc1ccc(CCc2ncc3c(n2)n(C(=O)N2CCC2)c(=O)n3C)cc1 [compound 561] | – |
| 107 | 9 | CCCc1cccc(CCc2ncc3c(n2)n(C(=O)N(C)C)c(=O)n3C)c1 [compound 518] | – |
| 8 | > 100 | COCCCc1ncc2c(n1)n(C)c(=O)n2C(=O)N1CC(Oc2ccccc2)C1 [Example 384] | – |
| 41 | 148 | Cn1c(=O)n(C(=O)N2CCC2)c2nc(COc3ccccc3)ncc21 [Example 415] | – |
| 43 | – | CCN(C)C(=O)n1c(=O)n(C)c2cnc(CCc3ccccc3F)nc21 [compound 554] | – |
| 100 | 5 | CCCCc1ccc(CCc2ncc3c(n2)n(C(=O)N(C)C)c(=O)n3C)cc1 [compound 508] | – |
| 84 | 9 | CN(C)C(=O)n1c(=O)n(C)c2cnc(CCCOc3ccc(F)cc3)nc21 [Example 398] | – |
| – | 55 | CN(C)C(=O)n1c(=O)n(C)c2cnc(CCc3cc(F)cc(F)c3)nc21 [compound 528] | FAAH Inhibition, Inhibition Rate at 100 nM (rat brain membrane preparations, 100 nM test substance, 0.1 µM): 72% |
| 105 | 9 | COCCc1ncc2c(n1)n(C)c(=O)n2C(=O)N1CC(c2ccccc2)C1 [compound 389] | – |
| 102 | 11 | Cc1ccc(CCc2ncc3c(n2)n(C(=O)N(C)C)c(=O)n3C)cc1C [compound 510] | – |
| 55 | 82 | Cc1cccc(-c2ncc3c(n2)n(C(=O)N(C)C)c(=O)n3C)c1 [compound 324] | – |
| 99 | 10 | Cc1ccc(CCc2ncc3c(n2)n(C(=O)N2CCC2)c(=O)n3C)cc1C [compound 565] | – |
| 93 | 24 | Cc1cccc(CCc2ncc3c(n2)n(C(=O)N(C)C)c(=O)n3C)c1 [compound 498] | – |
| 82 | 39 | Cn1c(=O)n(C(=O)N2CCC2)c2cnc(Cc3ccccc3Cl)nc21 [compound 377] | – |
| 96 | 10 | CCOCc1ncc2c(n1)n(C)c(=O)n2C(=O)N1CC(c2ccccc2F)C1 [Example 465, 2-(Ethoxymethyl)-7-{[3-(2-fluorophenyl)azetidin-1-yl]carbonyl}-9-methyl-7,9-dihydro-8H-purine-8-one] | – |
| 122 | 11 | COc1ccc(CCc2ncc3c(n2)n(C(=O)N(C)C)c(=O)n3C)cc1 [compound 544] | – |
